Experimental findings from US12568967B2, “Compositions comprising pyridine carboxylate herbicides with synthetic auxin herbicides or auxin transport inhibitors” (priority 2018, dated 2026) are described below.

Experiment [1] deals with Polygonum convolvulus (wild buckwheat, POLCO). Kind of experiment: Greenhouse postemergence trial POLCO. Format: in vivo. As to conditions: for % visual injury, Obs: POLCO, 140 g/ha alone.
Experiment [2] has as its system Rumex obtusifolius (broad-leaf dock, RUMOB). Kind of experiment: Greenhouse postemergence trial RUMOB. The experiment is classed as in vivo. As to conditions: for % visual injury, Obs: RUMOB, 140 g/ha alone.
Protocol: (§1) Seeds of the desired test plant species were planted in a 90:10% v/v (volume/volume) mixture of PRO-MIX® BX (Premier Tech Horticulture, Quakertown, PA, USA) and PROFILE® GREENS GRADE™ (Profile Products LLC, Buffalo Grove, IL, USA) planting mixture, which typically has a pH of 5.2 to 6.2 and an organic matter content of at least 50 percent, in plastic pots with a surface area of 103.2 square centimeters (cm^2). […] The plants were grown for 7-36 days (d) in a greenhouse with an approximate 14-hour (h) photo-period which was maintained at about 23° C. during the day and 22° C. during the night. Nutrients and water were added on a regular basis and supplemental lighting was provided with overhead metal halide 1000-Watt lamps as necessary. The plants were employed for testing when they reached the second or third true leaf stage.
(§2) Emulsifiable concentrates of each of each pyridine carboxylate herbicide (Compound A or Compound B) were prepared at 100 grams acid equivalent per liter (g ae/L). The emulsifiable concentrates also included a safener, cloquintocet-mexyl, at 120 grams active ingredient per liter (g ai/L), unless otherwise noted below. An aliquot of each emulsifiable concentrate was placed in a 25 mL glass vial and diluted with an aqueous mixture of 1.25% (v/v) ACTIROB® B esterified rapeseed oil (Bayer Crop Science, Research Triangle Park, NC, USA) or MSO® Concentrate with LECI-TECH® methylated soybean oil (Loveland Products, Loveland, CO, USA) to obtain concentrated stock solutions at the highest application rate for each herbicide, based upon a 12 milliliter (mL) application volume at a rate of 187 liters per hectare (L/ha). The concentrated stock solutions were further diluted with an aqueous mixture of 1.25% v/v ACTIROB® B or MSO® Concentrate with LECI-TECH® to obtain stock solutions at reduced application rates for each herbicide. Spray solutions of the herbicide combinations (Compound A or Compound B plus synthetic auxin herbicide or auxin transport inhibitor) were prepared by adding weighed amounts or aliquots of the synthetic auxin herbicide or auxin transport inhibitor to the stock solutions of Compound A or Compound B to form 12-mL spray solutions in two-way combinations.
(§3) The spray solutions were applied to the plant material with an overhead Mandel track sprayer equipped with 8002E nozzles calibrated to deliver 187 L/ha over an application area of 0.503 square meters (m^2) at a spray height of 18 inches (43 centimeters (cm)) above the average plant canopy. Control plants were sprayed in the same manner with the solvent blank. All pyridine carboxylate herbicide (component a) application rates are given as “g ae/ha” and all synthetic auxin herbicide or auxin transport inhibitor (component b) application rates are given as “g ai/ha.”
(§4) The treated plants and control plants were placed in a greenhouse as described above and watered by sub-irrigation to prevent wash-off of the test compounds. After 20-22 d, the condition of the test plants as compared with that of the control plants was determined visually and scored on a scale of 0 to 100 percent where 0 corresponds to no injury and 100 corresponds to complete kill.
Experiment [3] has as its system Helianthus annuus (common sunflower, HELAN). As to the kind of experiment: Greenhouse postemergence trial HELAN. Format: in vivo. The following applies: HELAN; 140 g/ha alone.
The test system of experiment [4] is Cirsium arvense (Canadian thistle, CIRAR). As to the kind of experiment: Greenhouse postemergence trial CIRAR. Format: in vivo. The following applies: for % visual injury, Obs: CIRAR, 140 g/ha alone.
Experiment [5] relates to Avena fatua (wild oat, AVEFA). Kind of experiment: Greenhouse postemergence trial AVEFA. The experiment is classed as in vivo. As to conditions: AVEFA; 140 g/ha alone.
Protocol: as §1
(§5) Emulsifiable concentrates of each of each pyridine carboxylate herbicide (Compound A or Compound B) were prepared at 100 grams acid equivalent per liter (g ae/L). The emulsifiable concentrates also included a safener, cloquintocet-mexyl, at 120 grams active ingredient per liter (g ai/L), unless otherwise noted below. An aliquot of each emulsifiable concentrate was placed in a 25 mL glass vial and diluted with an aqueous mixture of 1.25% (v/v) ACTIROB® B esterified rapeseed oil (Bayer Crop Science, Research Triangle Park, NC, USA) or MSO® Concentrate with LECI-TECH® methylated soybean oil (Loveland Products, Loveland, CO, USA) to obtain concentrated stock solutions at the highest application rate for each herbicide, based upon a 12 milliliter (mL) application volume at a rate of 187 liters per hectare (L/ha). The concentrated stock solutions were further diluted with an aqueous mixture of 1.25% v/v ACTIROB® B or MSO® Concentrate with LECI-TECH® to obtain stock solutions at reduced application rates for each herbicide. Spray solutions of the herbicide combinations (Compound A or Compound B plus synthetic auxin herbicide or auxin transport inhibitor) were prepared by adding weighed amounts or aliquots of the synthetic auxin herbicide or auxin transport inhibitor to the stock solutions of Compound A or Compound B to form 12-mL spray solutions in two-way combinations. […]
as §4
Experiment [6] has as its system Sorghum vulgare (grain sorghum, SORVU). As to the kind of experiment: Greenhouse postemergence trial SORVU. The experiment is classed as in vivo. The following applies: SORVU; 140 g/ha alone.
Protocol: as §1, §5, §4
Experiment [7] relates to Ipomoea hederacea (ivyleaf morningglory, IPOHE). As to the kind of experiment: Greenhouse postemergence trial IPOHE. Format: in vivo. The following applies: IPOHE; 140 g/ha alone.
Protocol: as §1, §2, §3, §4
For experiment [8], the system named is Echinochloa crus-galli (barnyard grass, ECHCG). Kind of experiment: Greenhouse postemergence trial ECHCG. Format: in vivo. The following applies: for % visual injury, Obs: ECHCG, 140 g/ha alone.
Protocol: as §1, §2, §3, §4
Experiment [9] concerns Glycine max (volunteer soybean, GLXMA). Kind of experiment: Greenhouse postemergence trial GLXMA. The following applies: GLXMA; 140 g/ha alone. Format: in vivo.
The subject of experiment [10] is Cyperus esculentus (nutsedge, CYPES). Kind of experiment: Greenhouse postemergence trial CYPES. Format: in vivo. As to conditions: CYPES; 140 g/ha alone.
Protocol: as §1, §5, §4
Experiment [11] relates to Alopecurus myosuroides (blackgrass, ALOMY). Kind of experiment: Greenhouse postemergence trial ALOMY. Format: in vivo. As to conditions: ALOMY; 140 g/ha alone.
Protocol: as §1, §5, §4
Experiment [12] concerns Leptochloa chinensis (Chinese sprangletop, LEFCH). Kind of experiment: Greenhouse postemergence trial LEFCH. Format: in vivo. As to conditions: LEFCH; 140 g/ha alone.
Protocol: as §1, §5, §4
In experiment [13] the test system is Lolium multiflorum (Italian ryegrass, LOLMU). As to the kind of experiment: Greenhouse postemergence trial LOLMU. Format: in vivo. The following applies: for % visual injury, Obs: LOLMU, 140 g/ha alone.
Protocol: as §1, §2, §3, §4
Experiment [14] concerns Brassica napus (winter rape, BRSNW). As to the kind of experiment: Greenhouse postemergence trial BRSNW. Format: in vivo. The following applies: Brassica napus, post-emergence, read-out: % visual injury Obs.
Protocol: as §1, §2, §3, §4
The subject of experiment [15] is Stellaria media (chickweed, STEME). Kind of experiment: Greenhouse postemergence trial STEME. As to conditions: STEME; 140 g/ha alone. Format: in vivo.
For experiment [16], the system named is Digitaria sanguinalis (large crabgrass, DIGSA). As to the kind of experiment: Greenhouse postemergence trial DIGSA. The following applies: for % visual injury, Obs: DIGSA, 140 g/ha alone. Format: in vivo.
Protocol: as §1, §2, §3, §4
Experiment [17] has as its system Abutilon theophrasti (velvetleaf, ABUTH). As to the kind of experiment: Greenhouse postemergence trial ABUTH. Format: in vivo. As to conditions: for % visual injury, Obs: ABUTH, 140 g/ha alone.
Experiment [18] has as its system Viola tricolor (wild pansy, VIOTR). Kind of experiment: Greenhouse postemergence trial VIOTR.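 On all read-outs here: greenhouse plants sprayed at second to third true leaf stage, injury rated visually after 20-22 d against solvent-blank sprayed controls, 0 meaning no injury and 100 complete kill.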 As to conditions: for % visual injury, Obs: VIOTR, 140 g/ha alone.
The test system of experiment [19] is Kochia scoparia (kochia, KCHSC). Kind of experiment: Greenhouse postemergence trial KCHSC. The experiment is classed as in vivo. The following applies: for % visual injury, Obs: KCHSC, 140 g/ha alone.
Protocol: as §1, §2, §3, §4
Experiment [20] has as its system Setaria faberi (giant foxtail, SETFA). As to the kind of experiment: Greenhouse postemergence trial SETFA. Format: in vivo. As to conditions: for % visual injury, Obs: SETFA, 140 g/ha alone.
Protocol: as §1, §2, §3, §4
The subject of experiment [21] is Oryza sativa (common rice, ORYSA). As to the kind of experiment: Greenhouse postemergence trial ORYSA. The experiment is classed as in vivo. The following applies: diflufenzopyr 10 g/ha.
Protocol: as §1
Emulsifiable concentrates of each of each pyridine carboxylate herbicide (Compound A or Compound B) were prepared at 100 grams acid equivalent per liter (g ae/L). […]
as §4
The subject of experiment [22] is Brassica napus (spring rape, BRSNN). As to the kind of experiment: Greenhouse postemergence trial BRSNN. Format: in vivo. As to conditions: diflufenzopyr 10 g/ha.

Regarding `O=C(O)c1cc(I)cc(I)c1I` [2,3,5-TIBA], the “% visual injury, Obs” value in experiment [1], in [2], in experiment [3], in [4], in [5] and in experiment [6] was 0% each time. Moreover, the “% visual injury, Obs” value is given as 0% in experiment [7]; 0% in experiment [8]; 40% in experiment [9]; 0% in experiment [10]; 0% in experiment [11]; 0% in experiment [12]. Besides, the “% visual injury, Obs” value in [13], in [15], in experiment [16], in experiment [17], in [18] and in experiment [19] was 0% each time. Further, in experiment [20], the “% visual injury, Obs” value is 0%. In [14], the plant injury at 140 g/ha came out at 0%.

With `C/C(=N\NC(=O)Nc1cc(F)cc(F)c1)c1ncccc1C(=O)O` [Diflufenzopyr], the “POLCO Obs (% visual injury)” value in experiment [1] (diflufenzopyr 10 g/ha) is given as 5%. In addition, the “RUMOB Obs (% visual injury)” value in experiment [2] (diflufenzopyr 10 g/ha) was 8%. Further, the “CIRAR Obs (% visual injury)” value in experiment [4] (diflufenzopyr 10 g/ha) turned out to be 10%. Also, in experiment [21], the “ORYSA Obs (% visual injury)” value was 8%. Besides, the “ECHCG Obs (% visual injury)” value in [8] (diflufenzopyr 10 g/ha) worked out at 0%. The “LOLMU Obs (% visual injury)” value in [13] (diflufenzopyr 10 g/ha) came to 8%. In addition, the “DIGSA Obs (% visual injury)” value in experiment [16] (diflufenzopyr 10 g/ha) is listed as 0%. For the same molecule, the “ABUTH Obs (% visual injury)” value in experiment [17] (diflufenzopyr 10 g/ha) is 38%. Besides, in experiment [18] (diflufenzopyr 10 g/ha), the “VIOTR Obs (% visual injury)” value was 8%. Besides, in experiment [19] (diflufenzopyr 10 g/ha), the “KCHSC Obs (% visual injury)” value was determined as 10%. Besides, the “SETFA Obs (% visual injury)” value in experiment [20] (diflufenzopyr 10 g/ha) is recorded as 20%. In addition, the “BRSNN Obs (% visual injury)” value in experiment [22] is 70%.

On to `O=C(O)c1ccccc1C(=O)Nc1cccc2ccccc12` [Naptalam], for which the “% visual injury, Obs” value in experiment [1], in experiment [2], in experiment [3], in experiment [4], in experiment [5] and in experiment [6] was 0% throughout. In addition, the “% visual injury, Obs” value worked out at 0% in experiment [7]; 0% in [8]; 13% in [9]; 35% in [10]; 0% in experiment [11]; 0% in experiment [12]. Further, the “% visual injury, Obs” value in experiment [13], in experiment [15], in [16], in [17], in experiment [18] and in [19] was 0% in each case. For the same molecule, the “% visual injury, Obs” value in experiment [20] amounted to 0%. The plant injury at 140 g/ha in [14] was found to be 0%.
